Values of other authors as cited in patent US6947791B2, “Method and apparatus for electrically assisted topical delivery of agents for cosmetic applications” (Genetronics, Inc., priority 1998, dated 2005).
Where two headings read alike, the source gives them in different places.

Test system: human dermal fibroblasts
Conditions: for MTT50 (amount required to kill 50% of the cells in cell culture): pH 7.5

SMILES: O=C1O[C@H]([C@@H](O)CO)C([O-])=C1OP(=O)([O-])[O-].O=C1O[C@H]([C@@H](O)CO)C([O-])=C1OP(=O)([O-])[O-].[Mg+2].[Mg+2].[Mg+2] [MAP]
- MTT50 (amount required to kill 50% of the cells in cell culture) (fibroblasts from person one): 75,000 ppm
- MTT50 (amount required to kill 50% of the cells in cell culture) (fibroblasts from person two): higher than 100,000 ppm
- cytotoxicity compared to L-ascorbic acid (fibroblasts of all ages): significantly lower cytotoxicity
